The source of these data is patent US10301257B2, “Use of acylsulfonamides for improving plant yield” (BAYER INTELLECTUAL PROPERTY GMBH, priority 2011, dated 2019).

Common to all, as to type: in vivo
The test system of assay [1] is spring oilseed rape (canola). The assay is described as follows: Field trial: grain yield of spring oilseed rape (canola), postemergence CPA + tebuconazole (TBC). The source says: (§1) The trials have been carried out under natural field conditions (plot trials, 10 square meter plots, 2-4 replications).
(§2) The applications have been done with seed treatment, pre- or post-emergence treatments straight (alone, 1 application) or sequential treatments e.g. seed treatment followed by pre-emergence and/or post-emergence spray applications. The pre- or post-emergence applications were made with spray applications using 100-300 I/water per hectare. The growth stage of the crops species at the time of application are reported in the result tables. The dose rates of the herbicidal active ingredients applied alone respective in sequential application are also described in the result tables.
(§3) The assessments have been done via visual ratings (0-100% scale) or counting. The trials have been harvested after crops reached the full maturity. After the harvest the total weight of kernels/seeds/beets per plot was measured. The results are reported as means over 2-4 replications. The time between applications and assessments or countings/harvest are described in the result tables as well.

The next assay has as its system cotton. Description: Field trial: lint yield of cotton, postemergence application of Cyprosulfamide. The conditions noted are these: 100 g ai/ha.
Source text: as §1, §2, §3

Assay [2] relates to spring wheat. Description: Field trial: gluten content of spring wheat grains, postemergence application of Cyprosulfamide. The following applies: 35 days after application.
Source text: as §1, §2, §3

In assay [3] the test system is spring wheat. The assay is described as follows: Field trial: grain yield of spring wheat, postemergence application of Cyprosulfamide.
Source text: as §1, §2, §3

Another assay relates to corn (maize). Description: Field trial: grain yield of corn (maize) after seed treatment with Cyprosulfamide. The conditions noted are these: for Difference(%) vs. UTC / Relative %: corn (maize) grain yield; for Relative %: UTC = 100%; for Yield (grain yield at harvest): corn (maize), seed treatment prior planting, 110 days after planting (short season variety). The source says:
(§4) The trials have been carried out under natural field conditions (plot trials, 10 square meter plots, 2-4 replications). The applications have been done with seed treatment, pre- or post-emergence treatments straight (alone, 1 application) or sequential treatments e.g. seed treatment followed by pre-emergence and/or post-emergence spray applications. The pre- or post-emergence applications were made with spray applications using 100-300 I/water per hectare. The growth stage of the crops species at the time of application are reported in the result tables. The dose rates of the herbicidal active ingredients applied alone respective in sequential application are also described in the result tables. The assessments have been done via visual ratings (0-100% scale) or counting. The trials have been harvested after crops reached the full maturity. After the harvest the total weight of kernels/seeds/beets per plot was measured. The results are reported as means over 2-4 replications. The time between applications and assessments or countings/harvest are described in the result tables as well. The active ingredients have been applied to the untreated, dry seeds together with a carrier. After a short period of time to let the seeds dry, they were ready to be sown in the pot or field using standard equipments.

The test system of a further assay is rice. The assay is described as follows: Field trial: grain yield of rice, sequential application of Cyprosulfamide.
Source text: as §4

Assay [4] relates to corn. The assay is described as follows: Field trial: biomass yield and plant density of corn, sequential application of Cyprosulfamide. The conditions noted are these: 0.15 g ai/kg seed fb 3 × 50 g ai/ha post, 98 days after emergence.
Source text: as §4

Assay [5] concerns corn. Description: Field trial: grain yield of corn, postemergence application of Cyprosulfamide.
Source text: as §1, §2, §3

Assay [6] has as its system winter wheat. The assay is described as follows: Field trial: grain yield (g/1000 kernel) of winter wheat, seed treatment with Cyprosulfamide. The conditions noted are these: 1 g ai/kg seed.
Source text: as §4

Another assay has as its system sugarbeet. The assay is described as follows: Field trial: sugar and beet yield of sugarbeet, sequential application of Cyprosulfamide. The following applies: 0.15 mg ai/seed fb 3 × 50 g ai/ha post, 44 days after last postemergence treatment.
Source text: as §4

The test system of assay [7] is canola. The assay is described as follows: Field trial: grain yield of canola, postemergence treatment with Cyprosulfamide.
Source text: as §1, §2, §3

Another assay has as its system rice plants. Description: Field trial: germination and emergence of rice plants after seed treatment with Cyprosulfamide.
Source text: as §4

The test system of assay [8] is canola. The assay is described as follows: Field trial: grain yield of canola, sequential application of Cyprosulfamide.
Source text: as §4

The subject of assay [9] is corn. The assay is described as follows: Field trial: grain yield of corn, sequential application of Cyprosulfamide.
Source text: as §4

Assay [10] relates to winter wheat. Description: Field trial: grain yield of winter wheat, preemergence application of Cyprosulfamide.
Source text: as §1, §2, §3

A further assay deals with soybeans. The assay is described as follows: Field trial: grain yield of soybeans, postemergence application of Cyprosulfamide. The conditions noted are these: 100 g ai/ha.
Source text: as §1, §2, §3

Assay [11] relates to spring wheat. The assay is described as follows: Field trial: grain yield of spring wheat, postemergence cyprosulfamide (CPA) + epoxiconazole (EPC).
Source text: as §1, §2, §3

On to `CC(C)(C)C(O)(CCc1ccc(Cl)cc1)Cn1cncn1` (centres unmarked) [TBC, tebuconazole], for which, in [1] (canola grain yield, TBC 150, CPA + TBC 100 + 150 g ai/ha), the “Difference(%) vs. UTC” value was “+1.8%”. Further, the Relative % in assay [1] (canola grain yield, TBC 150, CPA + TBC 100 + 150 g ai/ha, UTC = 100%) was determined as 101.8%. Also, the “Yield (grain yield at harvest)” value in assay [1] (spring oilseed rape (canola), post-emergence spring, beginning of flowering, TBC 150 g ai/ha, CPA + TBC 100 + 150 g ai/ha, 92 days after application, UTC 3.91) is 3.91 t/ha.

For `COc1ccccc1C(=O)NS(=O)(=O)c1ccc(C(=O)NC2CC2)cc1` [Cyprosulfamide, cyprosulfamide], the “Difference(%) vs. UTC” value in the assay with cotton (cotton lint yield) was “+16%”; in the assay on spring wheat [3] (spring wheat grain yield, 100 g ai/ha postemergence), “+8%”; with corn (maize) (0.15 mg ai/seed), “+12%”; in the assay with corn (maize) (0.225 mg ai/seed) it was “+13%”; in the assay on rice (rice grain yield, sequential application), “+5%”; in the assay on corn [5] (corn grain yield, 100 g ai/ha postemergence) it was “+28%”. Also, the “Difference(%) vs. UTC” value is “+8%” with winter wheat [6] (winter wheat g/1000 kernel); “+19%” with canola [7] (canola grain yield, 100 g ai/ha postemergence); “+23%” in the assay with rice plants (rice plants/10 m^2, 0.5 g ai/kg seed); “+24%” with canola [8] (canola grain yield, sequential application); “+38%” with corn [9] (corn grain yield, sequential application); “+11%” with winter wheat [10] (winter wheat grain yield, 100 g ai/ha preemergence). Moreover, the “Difference(%) vs. UTC” value in the assay on soybeans (soybean grain yield) is “+5%”. The Relative stood at 116% in the assay on cotton (cotton lint yield, UTC = 100%); 105% in the assay with rice (rice grain yield, sequential application, UTC = 100%); 128% in the assay with corn [5] (corn grain yield, 100 g ai/ha postemergence, UTC = 100%); 108% with winter wheat [6] (winter wheat g/1000 kernel, UTC = 100%); 119% with canola [7] (canola grain yield, 100 g ai/ha postemergence, UTC = 100%); 123% in the assay on rice plants (rice plants/10 m^2, 0.5 g ai/kg seed, UTC = 100%). Also, the Relative with canola [8] (canola grain yield, sequential application, UTC = 100%) was found to be 124%; in the assay on corn [9] (corn grain yield, sequential application, UTC = 100%) it was 138%; with soybeans (soybean grain yield, UTC = 100%) it was 105%. Besides, in the assay with cotton (cotton lints at harvest, postemergence preflowering (GS 55), 90 days after application), the “Yield t/ha (lint)” value turned out to be 0.254 t/ha. For the same compound, the “Yield Relative: relative gluten content in harvested grains” value in the assay on spring wheat [2] (100 g ai/ha at ear emergence, UTC = 100%) is 109%. Also, in the assay with spring wheat [2] (postemergence at ear emergence, 100 g ai/ha), the “Yield: gluten content (absolute) in harvested grains” value is 30.9. Besides, the “Yield (grain yield at harvest)” value in the assay with spring wheat [3] (spring wheat, postemergence at beginning of emergence of the ears (GS49), 100 g ai/ha, 48 days after application) was 3.83 t/ha; with corn (maize) (0.15 mg ai/seed) it was 8.32 t/ha; in the assay with corn (maize) (0.225 mg ai/seed) it was 8.39 t/ha; with rice (rice, 0.5 g ai/kg seed fb 3 × 50 g ai/ha post, 75 days after last application), 5.74 t/ha; in the assay on corn [5] (corn, postemergence at 6-8 leaves, 100 g ai/ha, 130 days after application), 5.60 t/ha; in the assay on winter wheat [6] (winter wheat, seed treatment prior planting, 290 days after planting) it was 39.2 g/1000 kernel. Besides, the “Yield (grain yield at harvest)” value with canola [7] (canola, postemergence GS 52 pre flowering, 100 g ai/ha, 63 days after treatment) was determined as 2.62 t/ha; in the assay with canola [8] (canola, 0.5 g ai/kg seed fb 3 × 50 g ai/ha post (4-6 leaves, stem elongation, beginning of flowering), 63 days after application), 3.47 t/ha; in the assay on corn [9] (corn, 0.15 g ai/kg seed fb 3 × 50 g ai/ha post (2-4 leaves, 6-8 leaves, preflowering), 98 days after emergence) it was 14.1 t/ha; in the assay with winter wheat [10] (winter wheat, preemergence autumn, 100 g ai/ha, 247 days after application), 5.88 t/ha; in the assay with soybeans (soybeans, postemergence preflowering (GS 60), 45 days after application) it was 2.78 t/ha. In addition, the Relative % stood at 112% with corn (maize) (0.15 mg ai/seed); 113% in the assay on corn (maize) (0.225 mg ai/seed); 111% in the assay with winter wheat [10] (winter wheat grain yield, 100 g ai/ha preemergence, UTC = 100%). In addition, the “Yield: Biomass yield at harvest” value with corn [4] (UTC 6.0) worked out at 7.5 t/ha. Further, the “Yield: Plant density at harvest” value in the assay with corn [4] (UTC 14) stood at 17.3 plants/sqm. In addition, the “Yield of beets (storage root/body) by weight at harvest” value in the assay with sugarbeet (UTC 59.3) is 61.3 t/ha. In the assay with sugarbeet (UTC 5778), the “Sugar Yield at harvest” value came out at 6110 kg/ha. In addition, in the assay on rice plants (rice, seed treatment 0.5 g ai/kg seed, 12 days after emergence), the “plants/10 m^2 (germination and emergence)” value worked out at 208 plants/10 m^2.

On to `Fc1ccc([C@]2(Cn3cncn3)O[C@H]2c2ccccc2Cl)cc1` (racemic) [EPC, epoxiconazole], for which the “Difference(%) vs. UTC” value with spring wheat [11] (spring wheat grain yield, EPC 125, CPA + EPC 100 + 125 g ai/ha) is “+9.7%”. In the assay on spring wheat [11] (spring wheat grain yield, EPC 125, CPA + EPC 100 + 125 g ai/ha, UTC = 100%), the Relative % is recorded as 109.7%^. In the assay on spring wheat [11] (spring wheat, post-emergence spring, flag leaf sheath opening, EPC 125 g ai/ha, CPA + EPC 100 + 125 g ai/ha, 55 days after application, UTC 1.84), the “Yield (grain yield at harvest)” value is recorded as 2.02 t/ha.
